Laboratory results: the supplement of paper PMC13380429

What was measured:
Settings in all cases: 72 h
Vero E6 [1] = assay: drug sensitivity score (DSS) for viability; higher = more toxic; extreme values may be limits of the assay
U2OS [2] = assay: as above
HepG2 [3] = assay: as above
Caco-2 [4] = assay: as above
Vero E6 [5] = assay: relative viability EC50 (midpoint between 100% and the lowest measured viability); higher = less toxic
U2OS [6] = assay: as above
HepG2 [7] = assay: as above
Caco-2 [8] = assay: as above
Vero E6 [9] = assay: cell viability relative to DMSO; higher = less toxic
U2OS [10] = assay: as above
HepG2 [11] = assay: as above
Caco-2 [12] = assay: as above
Calu-3 [13] = assay: drug sensitivity score (DSS) for viability; higher = more toxic; extreme values may be limits of the assay
Calu-3 [14] = assay: relative viability EC50 (midpoint between 100% and the lowest measured viability); higher = less toxic
Calu-3 [15] = assay: cell viability relative to DMSO; higher = less toxic

| SMILES | drug sensitivity score (Vero E6 [1]) | drug sensitivity score (U2OS [2]) | drug sensitivity score (HepG2 [3]) | drug sensitivity score (Caco-2 [4]) | relative viability EC50 (Vero E6 [5]) [µM] | relative viability EC50 (U2OS [6]) [µM] | relative viability EC50 (HepG2 [7]) [µM] | relative viability EC50 (Caco-2 [8]) [µM] | cell viability (Vero E6 [9]; 1 nM) [%] | cell viability (Vero E6 [9]; 10 nM) [%] | cell viability (Vero E6 [9]; 100 nM) [%] | cell viability (Vero E6 [9]; 1000 nM) [%] | cell viability (Vero E6 [9]; 10000 nM) [%] | cell viability (U2OS [10]; 1 nM) [%] | cell viability (U2OS [10]; 10 nM) [%] | cell viability (U2OS [10]; 100 nM) [%] | cell viability (U2OS [10]; 1000 nM) [%] | cell viability (U2OS [10]; 10000 nM) [%] | cell viability (HepG2 [11]; 1 nM) [%] | cell viability (HepG2 [11]; 10 nM) [%] | cell viability (HepG2 [11]; 100 nM) [%] | cell viability (HepG2 [11]; 1000 nM) [%] | cell viability (HepG2 [11]; 10000 nM) [%] | cell viability (Caco-2 [12]; 1 nM) [%] | cell viability (Caco-2 [12]; 10 nM) [%] | cell viability (Caco-2 [12]; 100 nM) [%] | cell viability (Caco-2 [12]; 1000 nM) [%] | cell viability (Caco-2 [12]; 10000 nM) [%] | drug sensitivity score (Calu-3 [13]) | relative viability EC50 (Calu-3 [14]) [µM] | cell viability (Calu-3 [15]; 1 nM) [%] | cell viability (Calu-3 [15]; 10 nM) [%] | cell viability (Calu-3 [15]; 100 nM) [%] | cell viability (Calu-3 [15]; 1000 nM) [%] | cell viability (Calu-3 [15]; 10000 nM) [%] |
| --- | --- | --- | --- | --- | --- | --- | --- | --- | --- | --- | --- | --- | --- | --- | --- | --- | --- | --- | --- | --- | --- | --- | --- | --- | --- | --- | --- | --- | --- | --- | --- | --- | --- | --- | --- |
| CSC[C@H](N)C(=O)O [S-methylcysteine] | 0 | 0 | 0 | 0 | > 10 | > 10 | > 10 | > 10 | 92.8 | 93.6 | 97.1 | 96.3 | 105 | 101 | 98.7 | 104 | 98.1 | 102 | 89.3 | 100 | 95.6 | 92.3 | 99.3 | 79.7 | 105 | 86.5 | 101 | 97.3 |  |  |  |  |  |  |  |
| C#Cc1cncc([C@@H]2CCCN2C)c1 [altinicline] |  | 0 | 0 | 0 |  | > 10 | > 10 | > 10 |  |  |  |  |  | 102 | 91.9 | 102 | 97.4 | 98.9 | 98.5 | 96.8 | 106 | 105 | 93.5 | 101 | 92.9 | 102 | 98.7 | 97.7 | 0 | > 10 | 98.3 | 99 | 93.9 | 102 | 110 |
| Nc1c(Br)cc(Br)cc1CN[C@H]1CC[C@H](O)CC1 [ambroxol] |  | 0 | 0 | 0 |  | > 10 | > 10 | > 10 |  |  |  |  |  | 103 | 99 | 103 | 101 | 101 | 102 | 98.5 | 99.6 | 103 | 87.5 | 100 | 92.8 | 98.5 | 89.4 | 97.5 | 0.2 | > 10 | 105 | 101 | 102 | 91.8 | 88.7 |
| NC(=O)CN1C=CCC(C(N)=O)=C1 [caricotamide] | 0 |  | 0 | 0 | > 10 |  | > 10 | > 10 | 101 | 95.4 | 99.5 | 99 | 101 |  |  |  |  |  | 93.2 | 103 | 104 | 116 | 106 | 113 | 103 | 103 | 97.7 | 104 |  |  |  |  |  |  |  |
| CC/C=C(\C(=O)N[C@@H]1C(=O)N2C(C(=O)OCOC(=O)C(C)(C)C)=C(COC(N)=O)CS[C@H]12)c1csc(N)n1 [cefcapene-pivoxil] | 0 | 0 | 3.3 | 0 | > 10 | > 10 | > 10 | > 10 | 109 | 94.7 | 110 | 111 | 102 | 97.2 | 106 | 98.5 | 103 | 103 | 107 | 93.8 | 89.7 | 78.8 | 86.4 | 104 | 101 | 117 | 113 | 94.4 |  |  |  |  |  |  |  |
| CCOC(=O)[C@@H](N)CCC(=O)N[C@@H](CSCc1ccccc1)C(=O)N[C@@H](C(=O)OCC)c1ccccc1 [ezatiostat] |  | 0 | 0 | 0.4 |  | > 10 | > 10 | > 10 |  |  |  |  |  | 96.9 | 106 | 96.1 | 100 | 95.3 | 101 | 98.8 | 99.4 | 97.1 | 107 | 98.4 | 93.4 | 92 | 91 | 86.2 | 0 | > 10 | 97.2 | 103 | 106 | 103 | 91.2 |
| CC(C)OC(=O)CNC(=O)[C@H](CS)NC(=O)CC[C@H](N)C(=O)O [glutathione-monoisopropyl-ester] | 0 |  | 0 | 0 | > 10 |  | > 10 | > 10 | 99.3 | 103 | 99.5 | 99.7 | 100 |  |  |  |  |  | 102 | 103 | 105 | 101 | 97.3 | 95.7 | 103 | 96.2 | 103 | 96.3 |  |  |  |  |  |  |  |
| CCCNS(=O)(=O)Nc1ncnc(OCCOc2ncc(Br)cn2)c1-c1ccc(Br)cc1 [macitentan] |  | 0 | 1.8 | 0 |  | > 10 | > 10 | > 10 |  |  |  |  |  | 101 | 99.5 | 100 | 99.4 | 101 | 99.5 | 108 | 92.7 | 85.5 | 91 | 102 | 99.7 | 102 | 104 | 108 | 0 | > 10 | 97.2 | 94.1 | 105 | 99 | 103 |
| O=C(N/N=C/c1ccc([N+](=O)[O-])o1)c1cc([N+](=O)[O-])cc([N+](=O)[O-])c1O [nifursol] |  | 0 | 0.3 | 0 |  | > 10 | > 10 | > 10 |  |  |  |  |  | 96.9 | 98.3 | 104 | 96.8 | 101 | 109 | 100 | 93 | 93.7 | 85.4 | 96.9 | 102 | 97.1 | 94.4 | 90.2 | 0 | > 10 | 89.1 | 102 | 103 | 94.9 | 101 |
| CCCNCC(O)COc1ccccc1C(=O)CCc1ccccc1 (stereo not drawn) [propafenone] | 2.9 | 0 | 1 | 0 |  | > 10 | > 10 | > 10 | 106 | 108 | 106 | 92.2 | 64.9 | 99.1 | 93.1 | 95.6 | 94.3 | 92.5 | 99.3 | 94 | 96.4 | 99.4 | 75.1 | 94.7 | 89.5 | 98.4 | 92.8 | 88.9 | 0 | > 10 | 105 | 95.3 | 103 | 93.7 | 99.7 |
| CO[C@H]1/C=C/O[C@@]2(C)Oc3c(C)c(O)c4c(O)c(c(/C=N/N5CCN(C)CC5)c(O)c4c3C2=O)NC(=O)/C(C)=C\C=C\[C@H](C)[C@H](O)[C@@H](C)[C@@H](O)[C@@H](C)[C@H](OC(C)=O)[C@@H]1C [rifampin] | 1.2 | 0.3 | 0.1 | 0 |  | > 10 | > 10 | > 10 | 68.7 | 97.8 | 70.2 | 103 | 64.7 | 96 | 105 | 98.2 | 97.2 | 86.9 | 97.9 | 102 | 104 | 89.4 | 92.4 | 88.9 | 88.7 | 90.8 | 88.5 | 105 | 0 | > 10 | 99.5 | 99.6 | 98.7 | 99.8 | 102 |
| Fc1ccc(CNc2ncnc3ccc(F)cc23)cc1 [spautin-1] | 0.1 | 0 | 5.9 | 2.4 | > 10 | > 10 | 1.98 |  | 102 | 96 | 96.6 | 89.5 | 89.1 | 92.2 | 97.4 | 101 | 95.5 | 96.7 | 99.2 | 102 | 104 | 88.8 | 26.3 | 99.7 | 98.9 | 96 | 91 | 69.3 | 2.8 |  | 97.3 | 90.2 | 100 | 88.6 | 70.1 |
| CN[C@@H]1[C@H](O)[C@H](NC)[C@H]2O[C@@]3(O)C(=O)C[C@@H](C)O[C@H]3O[C@@H]2[C@H]1O [spectinomycin] | 1.2 | 0 | 0 | 0 |  | > 10 | > 10 | > 10 | 56 | 108 | 55.1 | 108 | 59.1 | 101 | 107 | 100 | 102 | 98.5 | 88.4 | 105 | 98.7 | 106 | 96.7 | 100 | 102 | 99.4 | 109 | 91.9 | 0 | > 10 | 92.2 | 100 | 105 | 103 | 88.7 |
| O=C(N[C@@H]1CC[C@@H](c2cccc(F)c2F)CN(CC(F)(F)F)C1=O)N1CCC(n2c(=O)[nH]c3ncccc32)CC1 [telcagepant] |  | 0 | 0 | 0.6 |  | > 10 | > 10 | > 10 |  |  |  |  |  | 98.5 | 99.1 | 104 | 97 | 97.6 | 102 | 101 | 96.9 | 98.8 | 93.2 | 104 | 96 | 102 | 90.2 | 86.7 | 0 | > 10 | 94.7 | 98.1 | 95.7 | 105 | 108 |
| CC(C)n1nccc1-c1ncccc1COc1cccc(O)c1C=O [voxelotor] |  | 0 | 0 | 0.2 |  | > 10 | > 10 | > 10 |  |  |  |  |  | 102 | 97.1 | 96.5 | 95.8 | 94.8 | 98.1 | 109 | 96.9 | 109 | 101 | 101 | 95.4 | 96.5 | 104 | 84.6 | 0 | > 10 | 100 | 92.4 | 102 | 98.8 | 101 |
| CN(C)CCOC1=Cc2ccccc2Sc2ccc(Cl)cc21 [zotepine] | 2.2 | 0 | 4.3 | 0 |  | > 10 | 1.98 | > 10 | 99.4 | 93.6 | 98.6 | 94.1 | 70.4 | 104 | 97.2 | 97.7 | 91.5 | 92.4 | 104 | 95 | 98.7 | 91.8 | 45.7 | 92.4 | 84.1 | 91.9 | 90.7 | 75.7 | 0.4 | > 10 | 101 | 85.3 | 93.3 | 104 | 80.8 |
